From patent US12295967B2, “Pharmaceutical composition for prevention or treatment of flavivirus infection” (priority 2018, dated 2025) come the findings set out here.

A word on the IC50: it is the midpoint of a concentration-inhibition curve.

Starred links: 1 amine or outer side, 2 acyl side, 3 side chain; linkers in the order of their positions; H or OH if unused. Positions of bridges follow the written chain, without caps; N, C: chain ends. Non-standard residues stand in square brackets, D forms with d. Residues, ends and D or L forms follow the SMILES beside them. *: point of attachment. hTyr(3S-OH,4S-OH,3'-OSO3H) = N[C@H](C(=O)O)[C@H](O)[C@@H](O)c1ccc(O)c(OS(=O)(=O)O)c1; Orn(4R-OH,5R-OH) = O=C([C@H](C[C@@H](O)[C@@H](O)N[*:3])N[*:1])[*:2]; Pro(3S-OH,4S-Me) = C[C@H]1CN[C@H](C(=O)O)[C@H]1O; X1 = CCCCCOc1ccc(-c2cc(-c3ccc(C(=O)*)cc3)no2)cc1; Gln(3R-OH) = NC(=O)C[C@@H](O)[C@H](N)C(=O)O; Hyp = O=C(O)[C@@H]1C[C@@H](O)CN1

T2 sequence (P29990 1476-2093): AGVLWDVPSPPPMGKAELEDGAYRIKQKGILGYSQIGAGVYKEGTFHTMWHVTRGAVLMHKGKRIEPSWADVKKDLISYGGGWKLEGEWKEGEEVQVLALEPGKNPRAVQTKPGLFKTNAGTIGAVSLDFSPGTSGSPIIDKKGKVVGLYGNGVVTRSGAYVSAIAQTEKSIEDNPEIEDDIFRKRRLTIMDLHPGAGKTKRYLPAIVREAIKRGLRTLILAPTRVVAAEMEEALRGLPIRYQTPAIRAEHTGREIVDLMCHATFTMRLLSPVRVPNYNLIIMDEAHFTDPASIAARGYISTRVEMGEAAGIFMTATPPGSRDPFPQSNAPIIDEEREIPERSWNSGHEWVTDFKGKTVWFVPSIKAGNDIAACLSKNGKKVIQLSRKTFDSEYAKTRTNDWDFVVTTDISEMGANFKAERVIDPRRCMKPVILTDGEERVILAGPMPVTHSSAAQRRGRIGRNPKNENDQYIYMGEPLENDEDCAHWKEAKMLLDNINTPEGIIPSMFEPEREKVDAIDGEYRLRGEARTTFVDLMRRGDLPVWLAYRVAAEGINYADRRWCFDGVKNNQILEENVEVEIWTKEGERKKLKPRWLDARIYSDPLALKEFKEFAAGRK
T1 sequence (P29990 2492-3391): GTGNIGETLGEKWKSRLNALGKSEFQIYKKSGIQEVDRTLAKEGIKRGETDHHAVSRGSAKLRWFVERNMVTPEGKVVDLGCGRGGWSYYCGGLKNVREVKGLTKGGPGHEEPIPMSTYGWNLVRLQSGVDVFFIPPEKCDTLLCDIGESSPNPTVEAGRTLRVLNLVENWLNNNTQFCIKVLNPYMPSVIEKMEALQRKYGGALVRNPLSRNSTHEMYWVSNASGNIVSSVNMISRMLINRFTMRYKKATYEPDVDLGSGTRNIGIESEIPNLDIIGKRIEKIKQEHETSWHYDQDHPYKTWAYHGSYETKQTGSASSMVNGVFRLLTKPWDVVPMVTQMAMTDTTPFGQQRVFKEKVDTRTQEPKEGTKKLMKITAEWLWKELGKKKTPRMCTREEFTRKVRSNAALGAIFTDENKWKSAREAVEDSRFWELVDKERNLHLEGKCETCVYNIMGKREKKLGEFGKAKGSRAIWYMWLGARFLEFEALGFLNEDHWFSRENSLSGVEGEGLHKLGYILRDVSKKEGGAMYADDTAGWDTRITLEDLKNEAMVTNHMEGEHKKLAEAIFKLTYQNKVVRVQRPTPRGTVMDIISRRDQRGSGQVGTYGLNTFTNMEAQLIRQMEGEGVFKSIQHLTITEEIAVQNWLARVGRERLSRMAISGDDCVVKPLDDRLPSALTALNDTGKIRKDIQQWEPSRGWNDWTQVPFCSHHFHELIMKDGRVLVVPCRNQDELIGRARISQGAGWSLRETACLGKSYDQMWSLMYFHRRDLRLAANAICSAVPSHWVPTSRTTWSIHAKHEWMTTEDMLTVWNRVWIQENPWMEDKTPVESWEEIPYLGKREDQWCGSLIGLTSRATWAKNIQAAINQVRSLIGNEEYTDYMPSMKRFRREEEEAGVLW

The first assay addresses T1, dengue virus RdRp (Dengue virus type 2, UniProt P29990).
T1 construct: dengue virus RdRp enzyme activity
Put plainly: biochemical. The note with it: dengue virus RdRp enzyme activity; read-out: IC50, inhibitory target enzyme RdRp.
`CCN[C@@H]1C[C@H](N)[C@@H](O[C@H]2OC(CN)=CC[C@H]2N)[C@H](O)[C@H]1O[C@H]1OC[C@](C)(O)[C@H](NC)[C@H]1O` [Netimicin]: the 50% inhibitory concentration (IC50) amounted to 2.9 µM.

For the compound `CN(C)Cc1ccc(S(=O)(=O)n2ccc(/C=C/C(=O)NO)c2)cc1` [Resminostat], the IC50 was determined as 64.5 µM.

Regarding `CN[C@@H]1[C@H](O[C@H]2[C@H](O[C@H]3[C@H](O)[C@@H](O)[C@H](NC(=N)N)[C@@H](O)[C@@H]3NC(=N)N)O[C@@H](C)[C@]2(O)CO)O[C@@H](CO)[C@H](O)[C@H]1O` [Dihydrostreptomycin], the IC50 came out at 18.4 µM.

Consider `NC[C@H]1O[C@H](O[C@H]2[C@H](O)[C@@H](O[C@H]3O[C@H](CO)[C@@H](O)[C@H](N)[C@H]3O)[C@H](N)C[C@@H]2N)[C@H](N)C[C@@H]1O` [Tobramycin], for which the IC50 worked out at 3 µM.

Consider Capreomycin, for which the IC50 turned out to be 5.7 µM.

For `CN1CCN(CCCN2c3ccccc3Sc3ccc(C(F)(F)F)cc32)CC1` [Trifluoperazine], the IC50 is 22.1 µM.

With `[NH2][Pt]1([NH2])[O]CC(=O)[O]1` [Nedaplatin], the IC50 was found to be 86.4 µM.

With `NCC[C@H](O)C(=O)N[C@@H]1C[C@H](N)[C@@H](O[C@H]2O[C@H](CN)[C@@H](O)[C@H](O)[C@H]2O)[C@H](O)[C@H]1O[C@H]1O[C@H](CO)[C@@H](O)[C@H](N)[C@H]1O` [Amikacin], the IC50 came out at 24.3 µM.

For the compound `CCN(CCO)CCCC(C)Nc1ccnc2cc(Cl)ccc12` (stereo not shown) [Hydroxychloroquine], the IC50 was found to be 96 µM.

Turning to `NC[C@@H]1O[C@H](O[C@H]2[C@@H](O)[C@H](O[C@@H]3[C@@H](O)[C@H](N)C[C@H](N)[C@H]3O[C@H]3O[C@H](CO)[C@@H](O)[C@H](O)[C@H]3N)O[C@@H]2CO)[C@H](N)[C@@H](O)[C@@H]1O` [Paromomycin], the half-inhibitory concentration (IC50) amounted to 4.5 µM.

As to Gentamicin Sulfate, the IC50 was determined as 2.3 µM.

Another assay addresses T2, dengue virus helicase (Dengue virus type 2, UniProt P29990).
T2 construct: dengue virus helicase activity
Put plainly: Inhibition of dengue virus helicase activity. The assay is classed as biochemical.
Conditions: not given
From the text: A degree of inhibition of dengue virus helicase activity depending on the concentrations of 6 compounds was confirmed (IC50 values presented, FIG. 4).
Turning to `O=C1Nc2ccc(Cl)cc2[C@@](C#CC2CC2)(C(F)(F)F)O1` [Efavirenz], half-maximal inhibition (IC50) required 38.5 µM.

The compound `CC(=O)OCC1=C(C(=O)O)N2C(=O)[C@@H](NC(=O)Cc3cccs3)[C@H]2SC1` [Cephalothin] gave an IC50 of 26 µM.

As for `CCCCCOc1ccc(-c2cc(-c3ccc(C(=O)N[C@H]4C[C@@H](O)[C@@H](O)NC(=O)[C@@H]5[C@@H](O)[C@@H](C)CN5C(=O)[C@H]([C@H](O)CC(N)=O)NC(=O)[C@H]([C@H](O)[C@@H](O)c5ccc(O)c(OS(=O)(=O)O)c5)NC(=O)[C@@H]5C[C@@H](O)CN5C(=O)[C@H]([C@@H](C)O)NC4=O)cc3)no2)cc1` [Micafungin] (X1-[Orn(4R-OH,5R-OH)]T[Hyp][hTyr(3S-OH,4S-OH,3'-OSO3H)][Gln(3R-OH)][Pro(3S-OH,4S-Me)]; lactam 1-C), the IC50 was 5 µM.

Staying with this assay, now noted: dengue virus helicase activity; read-out: IC50, inhibitory target enzyme Helicase.
Regarding Bleomycin, the IC50 stood at 1.4 µM.

For the compound `C[C@@H]1[C@H](O)[C@@H](C)/C=C/C=C/CC/C=C/C=C/C=C/C=C/C(O[C@H]2O[C@H](C)[C@@H](O)[C@H](N)[C@@H]2O)CC2O[C@](O)(CC(O)C(O)CCC(O)CC(O)CC(O)CC(=O)O[C@H]1C)CC(O)C2C(=O)O` (stereo partly shown) [Nystatin], the IC50 came out at 13.1 µM.

`CCCCCCCCCCCCCCCCOP(=O)([O-])OCC[N+](C)(C)C` [Miltefosine]: the IC50 is 17.5 µM.

The subject of another assay is DENV. Put plainly: DENV viremia reduction in mouse blood, dengue infection model (AG129 mouse). In kind it is in vivo. The note with it: micafungin sodium IP, miltefosine oral, FIG. 5. On the procedure: On day 3, blood was collected from each mouse and transferred to an EDTA coated anticoagulant tube. After shaking for 10 minutes and gently mixing, 20 μl of each sample was analyzed by whole blood count using HEMAVET 950FS (Drew Scientific). The measured value of each factor was semi-quantified relative to that of the uninfected control. Plasma was isolated by centrifugation at 8000 g and 4° C. for 15 minutes in order to analyze cytokine hyperemia and expression changes. Plasma virus titer (viremia) and viral RNA expression in whole blood were analyzed by quantitative real-time PCR (qRT-PCR).
For target gene amplification, each primer was designed taking into account overlap between two exons of the target gene having a GC content of less than 50% and an expected amplicon size of about 100 bps. For quantification of viral RNA, quantitative real time PCR (qRT-PCR) was performed. Each reaction was performed in 20 μL volume using SYBR green master mix. Quantstudio 3™ (Applied Biosystems Inc., USA) was used for the present study in two-stage amplification process. […]
Virus in plasma was calculated according to an equation of standard curve. […] For cell-based group and mouse organ samples (including whole blood), semi-quantitative viral RNA was analyzed for GAPDH as an endogenous control. […]
On to `CCCCCOc1ccc(-c2cc(-c3ccc(C(=O)N[C@H]4C[C@@H](O)[C@@H](O)NC(=O)[C@@H]5[C@@H](O)[C@@H](C)CN5C(=O)[C@H]([C@H](O)CC(N)=O)NC(=O)[C@H]([C@H](O)[C@@H](O)c5ccc(O)c(OS(=O)(=O)O)c5)NC(=O)[C@@H]5C[C@@H](O)CN5C(=O)[C@H]([C@@H](C)O)NC4=O)cc3)no2)cc1` [Micafungin] (X1-[Orn(4R-OH,5R-OH)]T[Hyp][hTyr(3S-OH,4S-OH,3'-OSO3H)][Gln(3R-OH)][Pro(3S-OH,4S-Me)]; lactam 1-C), for which the dengue viremia entry is given as “significantly reduced”.

As for `CCCCCCCCCCCCCCCCOP(=O)([O-])OCC[N+](C)(C)C` [Miltefosine], the dengue viremia result is given as “significantly reduced”.
